Biological target: T1, α5β1 integrin (Homo sapiens, UniProt P05556+P08648)
T1 construct: gene ITGA5; soluble human α5β1-integrin (R&D); with integrin α5 (ITGA5, P08648)
Assay: competitive ELISA-like solid-phase binding assay against immobilized fibronectin

IC50 [mM]	SMILES
4.01	C[C@H](CCC(=O)NCCS(=O)(=O)O)[C@H]1CC[C@H]2[C@@H]3[C@@H](O)C[C@@H]4C[C@H](O)CC[C@]4(C)[C@H]3CC[C@]12C [TUDC]
3.93	C[C@H](CC(=O)O)[C@H]1CC[C@H]2[C@@H]3C(O)C[C@@H]4C[C@H](O)CC[C@]4(C)[C@H]3CC[C@]12C (some centres unmarked) [norUDCA]
